The test system of assay [1] is α1-containing complexes (α1β1γ1, α1β2γ1, and α1β1γ2). Nature of the assay: AMPK allosteric activation, summary over several complexes. Type of assay: biochemical, human. The note with it: range over several AMPK complexes, cell-free. The source says:
We initially compared the ability of C2 and AMP to activate various recombinant human AMPK complexes, expressed in insect cells, in cell-free assays (Figure 1B). As reported previously using rat liver complexes separated by immunoprecipitation ([Salt et al., 1998]), the allosteric activation of α1 complexes by AMP was less than that of α2 complexes. […] Similar results were obtained with other permutations of β and γ subunits in complex with α2 (data not shown). We also tested the effects of C2 and AMP on recombinant human α1β1γ1 and α2β1γ1 complexes expressed in E. coli and obtained similar results (data not shown).
AMPK phosphotransferase activity was assayed in reactions (50 μl) containing 50 mM HEPES, pH 7.4, 10 mM MgCl2, 0.1 mM EGTA, 1 mM DTT, 0.01% BRIJ-35, 100 μM [γ-^32P]ATP (∼250 CPM⋅pmol^−1) and 200 μM AMARA (AMARAASAAALARRR). Reactions were started by the addition of AMPK (5 mU), incubated for 20 min at 30°C and quenched by spotting onto P81 and immersion in 75 mM H3PO4. Washed filters were dried and [^32P] incorporation determined by Cherenkov counting. AMPK activity in cell extracts was determined by immunoprecipitation with AMPKα1 or AMPKα2 antibodies from 50 μg material, as previously described ([Hunter et al., 2011]). […]

The target of assay [2] is T1, fructose-1,6-bisphosphatase-1 (FBP1) (Mus musculus, UniProt Q9QXD6).
T1 construct: made in house; host or cells: E. coli
T1 sequence (Q9QXD6 whole entry): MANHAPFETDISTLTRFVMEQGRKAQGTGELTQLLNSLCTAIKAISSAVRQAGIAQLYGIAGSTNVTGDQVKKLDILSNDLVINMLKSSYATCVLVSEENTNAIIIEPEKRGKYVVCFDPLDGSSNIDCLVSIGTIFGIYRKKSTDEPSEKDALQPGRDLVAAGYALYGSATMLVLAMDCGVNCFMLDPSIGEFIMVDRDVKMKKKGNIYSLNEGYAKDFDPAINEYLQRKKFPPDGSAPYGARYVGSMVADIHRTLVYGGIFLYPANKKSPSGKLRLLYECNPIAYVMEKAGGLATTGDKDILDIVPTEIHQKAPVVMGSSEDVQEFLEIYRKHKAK
Description: FBP1 enzyme assay. Type of assay: biochemical. The method, then: Figure 1 The AMP Analog C2 Is a Potent AMPK Activator in Cell-Free Assays with Selectivity for α1 Complexes (A) The structure of the endogenous activator of AMPK, AMP; the AMP mimetic, C2; and the classical AMP mimetic, ZMP, and other AMPK activators are shown. […] (B) Recombinant AMPK complexes (α1β1γ1, α2β1γ1, α1β1γ2, and α1β2γ1) expressed in Spodoptera frugiperda were assayed for allosteric activation by AMP or C2. Results are expressed as the increase in activity relative to controls without ligand and represent the mean ± SD for three independent experiments. (C) Enzymes allosterically regulated by AMP (PFK1 and FBP1) or using AMP as a substrate (AMPD1, AK, and 5′-NT) were assayed in the presence of C2 (≤ 100 μM). Enzymes allosterically regulated by AMP were screened for both agonism and antagonism, the latter in the presence of AMP at ≈ EC50. All enzymes were unaffected by [C2] ≤ 100 μM. Representative data are shown for the effects of AMP and C2 on PFK1 and FBP1 activity. Results are representative of three independent experiments conducted on one enzyme preparation. […]

In turn, `Nc1ncnc2c1ncn2[C@@H]1O[C@H](COP(=O)(O)O)[C@@H](O)[C@H]1O` [AMP, reference compound] gave an EC50 in assay [1] of 2 to 4 µM. For the same compound, in assay [2] (read-out: IC50, inhibition of FBP1), the IC50 came to 5 µM.

Turning to `O=P(O)(O)c1ccc(-c2cc(O)on2)o1` [Compound C2, 5-(5-hydroxyl-isoxazol-3-yl)-furan-2-phosphonic acid], in assay [1], the EC50 was 0.01 to 0.03 µM. The “effect on FBP1” value in assay [2] (concentrations up to 100 μM) was “no effect”.

Broadly, the EC50 is the concentration giving half of the maximal effect. High values mean a need for much substance, low ones an effect from little substance. For orientation: IC50 means the midpoint of a concentration-inhibition curve.

For the origin of these results see article PMC4104029, “Mechanism of Action of Compound-13: An α1-Selective Small Molecule Activator of AMPK” (Chemistry & Biology, 2014).
